According to ChEMBL document CHEMBL1201862, “PubChem BioAssay data set” (2004):
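These data come from cells grown in 96-well plates and exposed to compound for 48 hours at five concentrations. GI50: concentration for 50% inhibition of growth.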 Active and inactive are the calls of the source. Cut-off read from the data, not from the text of the source: active = GI50 up to about 1.1 µM and inactive = higher.

Columns and labels:
Assay in all cases: growth of human tumour cells (NCI), 48 h
[1] = system: K562
[2] = system: MDA-MB-231
[3] = system: LOX IMVI
[4] = system: MDA-N
[5] = system: HCT-116
[6] = system: NCI-H226
[7] = system: CCRF-CEM
[8] = system: SR
[9] = system: NCI-H460
[10] = system: RPMI-8226
[11] = system: MDA-MB-435
[12] = system: M14
[13] = system: NCI-H23
[14] = system: SF-539
[15] = system: EKVX
[16] = system: OVCAR-3
[17] = system: HCT-15
[18] = system: SK-MEL-2
[19] = system: UACC-62
[20] = system: 786-0
[21] = system: SW-620
[22] = system: HT-29
[23] = system: TK-10
[24] = system: OVCAR-8
[25] = system: SF-295
[26] = system: ACHN
[27] = system: CAKI-1
[28] = system: SK-MEL-5
[29] = system: NCI-H522
[30] = system: SK-MEL-28
[31] = system: SF-268
[32] = system: T47D
[33] = system: PC-3
[34] = system: RXF 393
[35] = system: SNB-75
[36] = system: Malme-3M
[37] = system: OVCAR-5
[38] = system: COLO 205
[39] = system: SNB-19
[40] = system: HOP-92
[41] = system: Hs-578T
[42] = system: IGROV-1
[43] = system: UO-31
[44] = system: OVCAR-4
[45] = system: HCC 2998
[46] = system: SN12C
[47] = system: A549
[48] = system: U-251
[49] = system: HL-60
[50] = system: UACC-257
[51] = system: MOLT-4
[52] = system: MCF7
[53] = system: DU-145
[54] = system: A498
[55] = system: SK-OV-3
[56] = system: KM12
[57] = system: HOP-62
[58] = system: NCI/ADR-RES
[59] = system: BT-549

CN1CN(c2ccccc2)C2(CCN(CCCC3(c4cccs4)OCCO3)CC2)C1=O
GI50 [1]: > 100 µM (inactive)
GI50 [2]: > 100 µM (inactive)
GI50 [3]: > 100 µM (inactive)
GI50 [4]: > 100 µM (inactive)
GI50 [5]: > 100 µM (inactive)
GI50 [6]: > 100 µM (inactive)
GI50 [7]: > 100 µM (inactive)
GI50 [8]: > 100 µM (inactive)
GI50 [9]: > 100 µM (inactive)
GI50 [10]: > 100 µM (inactive)
GI50 [11]: > 100 µM (inactive)
GI50 [12]: 96.8 µM (inactive)
GI50 [13]: 77.6 µM (inactive)
GI50 [14]: > 100 µM (inactive)
GI50 [15]: > 100 µM (inactive)
GI50 [16]: > 100 µM (inactive)
GI50 [17]: > 100 µM
GI50 [18]: > 100 µM (inactive)
GI50 [19]: > 100 µM (inactive)
GI50 [20]: > 100 µM (inactive)
GI50 [21]: > 100 µM (inactive)
GI50 [22]: 36.1 µM (inactive)
GI50 [23]: > 100 µM (inactive)
GI50 [24]: > 100 µM (inactive)
GI50 [25]: > 100 µM (inactive)
GI50 [26]: > 100 µM (inactive)
GI50 [27]: > 100 µM (inactive)
GI50 [28]: 91 µM (inactive)
GI50 [29]: > 100 µM (inactive)
GI50 [30]: > 100 µM (inactive)
GI50 [31]: > 100 µM (inactive)
GI50 [32]: > 100 µM (inactive)
GI50 [33]: > 100 µM (inactive)
GI50 [34]: > 100 µM (inactive)
GI50 [35]: 88.7 µM (inactive)
GI50 [36]: > 100 µM (inactive)
GI50 [37]: > 100 µM (inactive)
GI50 [38]: > 100 µM (inactive)
GI50 [39]: > 100 µM (inactive)
GI50 [40]: 28.7 µM (inactive)
GI50 [41]: > 100 µM (inactive)
GI50 [42]: > 100 µM (inactive)
GI50 [43]: > 100 µM (inactive)
GI50 [44]: > 100 µM (inactive)
GI50 [45]: > 100 µM (inactive)
GI50 [46]: > 100 µM (inactive)
GI50 [47]: > 100 µM (inactive)
GI50 [48]: > 100 µM (inactive)
GI50 [49]: > 100 µM (inactive)
GI50 [50]: > 100 µM (inactive)
GI50 [51]: > 100 µM (inactive)
GI50 [52]: > 100 µM (inactive)
GI50 [53]: > 100 µM (inactive)
GI50 [54]: > 100 µM (inactive)
GI50 [55]: > 100 µM (inactive)
GI50 [56]: > 100 µM (inactive)
GI50 [57]: > 100 µM (inactive)
GI50 [58]: > 100 µM (inactive)

CC1(C)C(=O)C2(N)CCC1C2 (centres undefined)
GI50 [2]: > 100 µM (inactive)
GI50 [3]: > 100 µM (inactive)
GI50 [4]: > 100 µM (inactive)
GI50 [5]: > 100 µM (inactive)
GI50 [6]: > 100 µM (inactive)
GI50 [7]: > 100 µM (inactive)
GI50 [8]: > 100 µM (inactive)
GI50 [9]: > 100 µM (inactive)
GI50 [10]: > 100 µM (inactive)
GI50 [11]: > 100 µM (inactive)
GI50 [13]: > 100 µM (inactive)
GI50 [17]: > 100 µM
GI50 [19]: > 100 µM (inactive)
GI50 [20]: > 100 µM (inactive)
GI50 [23]: > 100 µM (inactive)
GI50 [24]: > 100 µM (inactive)
GI50 [26]: > 100 µM (inactive)
GI50 [27]: > 100 µM (inactive)
GI50 [30]: > 100 µM (inactive)
GI50 [31]: > 100 µM (inactive)
GI50 [32]: > 100 µM (inactive)
GI50 [35]: > 100 µM (inactive)
GI50 [59]: > 100 µM (inactive)
GI50 [38]: > 100 µM (inactive)
GI50 [39]: > 100 µM (inactive)
GI50 [40]: > 100 µM (inactive)
GI50 [43]: > 100 µM (inactive)
GI50 [44]: > 100 µM (inactive)
GI50 [45]: > 100 µM (inactive)
GI50 [46]: > 100 µM (inactive)
GI50 [48]: > 100 µM (inactive)
GI50 [50]: > 100 µM (inactive)
GI50 [53]: > 100 µM (inactive)
GI50 [54]: > 10 µM (inactive)
GI50 [56]: > 100 µM (inactive)
GI50 [58]: > 100 µM (inactive)
